Our source for the T/C values is PubChem BioAssay AID256 (DTP/NCI, 2004).

“And” between values parts separate entries of the source, which are not always exact repeats. Identical values can stand only once. Inconclusive results and toxic doses are left out.

The subject of the assay is CD2F1 mice, L1210 leukemia ip, survival T/C. The experiment in a line: NCI In Vivo Anticancer Drug Screen. Data for tumor model L1210 Leukemia (intraperitoneal) in CD2F1 (CDF1) mice. The following applies: higher = longer survival. The method in brief:
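Implant tumor; dose compound or vehicle; measure endpoint in both groups; report treated divided by control.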

Where [1] appears, read: endpoint: mean survival time, dose: 25.0 mg/kg/injection, schedule: Q04DX002 (ip), vehicle: saline with Tween-80.
[2] abbreviates: endpoint: mean survival time, dose: 50.0 mg/kg/injection, schedule: Q04DX002 (ip), vehicle: saline with Tween-80.
Where [3] appears, read: endpoint: mean survival time, dose: 100.0 mg/kg/injection, schedule: Q04DX002 (ip), vehicle: saline with Tween-80.
Setting [4] is: endpoint: mean survival time, dose: 200.0 mg/kg/injection, schedule: Q04DX002 (ip), vehicle: saline with Tween-80.
[5] abbreviates: endpoint: mean survival time, dose: 100.0 mg/kg/injection, schedule: Q01DX009 (ip), vehicle: saline with Tween-80.
Setting [6] is: endpoint: mean survival time, dose: 100.0 mg/kg/injection, schedule: Q04DX003 (ip), vehicle: saline with Tween-80.
The mark [7] stands for this setting: endpoint: mean survival time, dose: 200.0 mg/kg/injection, schedule: Q04DX003 (ip), vehicle: saline with Tween-80.
The mark [8] stands for this setting: endpoint: mean survival time, dose: 400.0 mg/kg/injection, schedule: Q04DX003 (ip), vehicle: saline with Tween-80.
Where [9] appears, read: endpoint: mean survival time, dose: 100.0 mg/kg/injection, schedule: Q01DX009 (ip), vehicle: Klucel (hydroxypropylcellulose) (HPC).
Setting [10] is: endpoint: mean survival time, dose: 200.0 mg/kg/injection, schedule: Q01DX009 (ip), vehicle: Klucel (hydroxypropylcellulose) (HPC).
[11] abbreviates: endpoint: mean survival time, dose: 400.0 mg/kg/injection, schedule: Q01DX009 (ip), vehicle: Klucel (hydroxypropylcellulose) (HPC).

With `Cn1c[n+](C)c2ncncc21`, the T/C is 102 % of control (endpoint: mean survival time, dose: 3.8 mg/kg/injection, schedule: Q01DX005 (ip), vehicle: water); 102 % of control (endpoint: mean survival time, dose: 7.5 mg/kg/injection, schedule: Q01DX005 (ip), vehicle: water); 117 % of control (endpoint: mean survival time, dose: 15.0 mg/kg/injection, schedule: Q01DX005 (ip), vehicle: water); 98 % of control (endpoint: mean survival time, dose: 30.0 mg/kg/injection, schedule: Q01DX005 (ip), vehicle: water); 95 % of control (endpoint: mean survival time, dose: 60.0 mg/kg/injection, schedule: Q01DX005 (ip), vehicle: water).
In the case of `COc1ccc(/C=N/NC(=S)Nc2ccccn2)cc1OC`, the T/C is, setting by setting: under setting [1], 92 % of control; under setting [2], 92 % of control; under setting [3], 88 % of control and 95 % of control.
For `FC(F)Cc1cccc(C(F)(F)F)c1`, the T/C was 107 % of control (endpoint: mean survival time, dose: 100.0 mg/kg/injection, schedule: Q01DX001 (ip), vehicle: saline with Tween-80); 98 % of control (endpoint: mean survival time, dose: 100.0 mg/kg/injection, schedule: Q04DX003 (ip), vehicle: saline sonified); 103 % of control (endpoint: mean survival time, dose: 200.0 mg/kg/injection, schedule: Q01DX001 (ip), vehicle: saline with Tween-80); 100 % of control (endpoint: mean survival time, dose: 200.0 mg/kg/injection, schedule: Q04DX003 (ip), vehicle: saline sonified); 104 % of control (endpoint: mean survival time, dose: 400.0 mg/kg/injection, schedule: Q01DX001 (ip), vehicle: saline with Tween-80); 100 % of control (endpoint: mean survival time, dose: 400.0 mg/kg/injection, schedule: Q04DX003 (ip), vehicle: saline sonified).
Turning to `O=C(/C=C/c1ccccc1)Nc1cccc2ccccc12`, the T/C was 90 % of control under setting [3]; 105 % of control under setting [4]; 94 % of control (endpoint: mean survival time, dose: 400.0 mg/kg/injection, schedule: Q04DX002 (ip), vehicle: saline with Tween-80).
As for `COc1cc(/C=C(\C#N)c2ccc(Cl)cc2)ccc1OCc1ccccc1`, the T/C runs as follows: (endpoint: mean survival time, dose: 50.0 mg/kg/injection, schedule: Q01DX009 (ip), vehicle: saline with Tween-80) 95 % of control; under setting [5], 90 % of control; under setting [6], 89 % of control; (endpoint: mean survival time, dose: 200.0 mg/kg/injection, schedule: Q01DX009 (ip), vehicle: saline with Tween-80) 90 % of control; under setting [7], 89 % of control; under setting [8], 89 % of control.
With `O=P(O)(CCCCl)c1ccccc1`, the T/C by setting is: under setting [1], 95 % of control; under setting [2], 91 % of control; under setting [3], 98 % of control; under setting [4], 91 % of control.
As to `CC1(C)N=C(N)N=C(N)N1c1ccc(CCC(=O)Nc2ccc(S(=O)(=O)F)cc2)cc1`, the T/C is 112 % of control (endpoint: mean survival time, dose: 12.5 mg/kg/injection, schedule: Q01DX009 (ip), vehicle: saline with Tween-80); 117 % of control (endpoint: mean survival time, dose: 25.0 mg/kg/injection, schedule: Q01DX009 (ip), vehicle: saline with Tween-80); 102 % of control (endpoint: mean survival time, dose: 100.0 mg/kg/injection, schedule: Q01DX001 (ip), vehicle: saline); 115 % of control under setting [5]; 111 % of control (endpoint: mean survival time, dose: 200.0 mg/kg/injection, schedule: Q01DX001 (ip), vehicle: saline); 123 % of control (endpoint: mean survival time, dose: 200.0 mg/kg/injection, schedule: Q01DX009 (ip), vehicle: saline). The T/C was 171 % of control (endpoint: mean survival time, dose: 300.0 mg/kg/injection, schedule: Q01DX009 (ip), vehicle: saline); 120 % of control (endpoint: mean survival time, dose: 400.0 mg/kg/injection, schedule: Q01DX001 (ip), vehicle: saline); 123 % of control (endpoint: mean survival time, dose: 400.0 mg/kg/injection, schedule: Q01DX009 (ip), vehicle: saline).
Consider `O=C1NCC1c1ccccc1` (stereo not drawn), for which the T/C runs as follows: (endpoint: median survival time, dose: 25.0 mg/kg/injection, schedule: Q04DX003 (ip), vehicle: saline with Tween-80) 90 % of control; (endpoint: median survival time, dose: 50.0 mg/kg/injection, schedule: Q04DX003 (ip), vehicle: saline with Tween-80) 90 % of control; (endpoint: median survival time, dose: 100.0 mg/kg/injection, schedule: Q04DX003 (ip), vehicle: saline with Tween-80) 100 % of control; (endpoint: median survival time, dose: 200.0 mg/kg/injection, schedule: Q04DX003 (ip), vehicle: saline with Tween-80) 90 % of control.
In the case of `CCOC(=O)C1(C(=O)O)CC2C(C)C=CC(C)C2C1` (stereo not drawn), the T/C reads like this: under setting [9], 100 % of control; under setting [10], 102 % of control; under setting [11], 96 % of control.
Turning to `O=c1c2ccccc2sc2c1ccc1c2ccc2c(=O)c3ccccc3sc21`, the T/C was 104 % of control (endpoint: mean survival time, dose: 50.0 mg/kg/injection, schedule: Q01DX009 (ip), vehicle: Klucel (hydroxypropylcellulose) (HPC)); 98 % of control under setting [9]; 98 % of control under setting [10].
With `c1ccc(NN=C(c2ccccc2)c2ccccc2)cc1`, the T/C reads like this: under setting [6], 95 % of control; under setting [7], 95 % of control; under setting [8], 98 % of control.
Turning to `CC(C)[NH-].CC(C)[NH-].[Cl][Pt+2][Cl]`, the T/C reads like this: (endpoint: mean survival time, dose: 1.56 mg/kg/injection, schedule: Q01DX009 (ip), vehicle: dextrose) 119 % of control; (endpoint: mean survival time, dose: 1.56 mg/kg/injection, schedule: Q01DX009 (ip), vehicle: other) 112 % of control; (endpoint: mean survival time, dose: 3.12 mg/kg/injection, schedule: Q01DX009 (ip), vehicle: other) 118 % of control; (endpoint: mean survival time, dose: 3.13 mg/kg/injection, schedule: Q04DX003 (ip), vehicle: distilled water + Tween-80) 112 % of control; (endpoint: mean survival time, dose: 6.25 mg/kg/injection, schedule: Q01DX009 (ip), vehicle: dextrose) 100 % of control; (endpoint: mean survival time, dose: 6.25 mg/kg/injection, schedule: Q04DX003 (ip), vehicle: distilled water + Tween-80) 115 % of control. The T/C by setting is: (endpoint: mean survival time, dose: 12.5 mg/kg/injection, schedule: Q01DX009 (ip), vehicle: dextrose) 98 % of control and 112 % of control; (endpoint: mean survival time, dose: 50.0 mg/kg/injection, schedule: Q01DX009 (ip), vehicle: other) 88 % of control; (endpoint: mean survival time, dose: 50.0 mg/kg/injection, schedule: Q04DX003 (ip), vehicle: distilled water + Tween-80) 118 % of control.
On to `O=C1CCC(=O)CC1`, for which the T/C was 111 % of control (endpoint: mean survival time, dose: 100.0 mg/kg/injection, schedule: Q04DX002 (ip), vehicle: saline); 107 % of control (endpoint: mean survival time, dose: 200.0 mg/kg/injection, schedule: Q04DX002 (ip), vehicle: saline); 107 % of control (endpoint: mean survival time, dose: 400.0 mg/kg/injection, schedule: Q04DX002 (ip), vehicle: saline).
Turning to `Cc1ccc(S(=O)(=O)N(C)C)cc1NC1=NCCO1`, the T/C reads like this: (endpoint: mean survival time, dose: 50.0 mg/kg/injection, schedule: Q04DX003 (ip), vehicle: saline with Tween-80) 95 % of control; under setting [6], 95 % of control; under setting [7], 90 % of control; under setting [8], 90 % of control.
For `COC(=O)c1cc(Cl)c(C(=O)OC)cc1Cl`, the T/C runs as follows: under setting [9], 92 % of control; under setting [10], 97 % of control; under setting [11], 102 % of control.
